Measurements reported in publication PMC12406203 (Journal of Medicinal Chemistry, 2025).
Where “and” joins values, the source holds several entries; their conditions need not be identical. Equal values may be shown once.

Tests used:
[1] = tested on: scopolamine-induced cognitive deficits in mice; assay: Passive avoidance task, scopolamine-induced amnesia; assay type: in vivo
Text: In the scopolamine model, the PA and NOR tasks were used for dose selection for further testing.
The mice had unlimited access to food and water prior to the experiment. Specified conditions for the maintenance of mice were ensured throughout the experiment, including tree bedding (Transwior, Poland) and cage enrichment (tunnels, nesting material, wooden igloos, etc.). For behavioral tests, the mice were selected randomly; each group consisted of 7–10 mice.
Scopolamine hydrobromide (Sigma-Aldrich, Poland) at the dose of 1 mg/kg was used to induce learning and memory deficits. For the in vivo tests, scopolamine was prepared in distilled water (Polfa Kutno, Poland) and was administered subcutaneously (s.c.) 30 min before behavioral tests during the acquisition (training) trial of PA and NOR tasks. […] They were administered intraperitoneally (i.p.) 60 min before the acquisition trial of the PA, NOR, and MWM tasks.
The PA apparatus (Panlab Harvard Apparatus, Spain) consists of a large white-colored illuminated compartment (26 cm × 26 cm × 34 cm) and a small black-colored compartment (13 cm × 7.5 cm × 7.5 cm), which are separated from each other by a guillotine gate (5 cm × 5 cm). The PA task is divided into two trials (i.e., the acquisition trial and the retention trial), each conducted 24 h apart. On the first day, during the acquisition trial (a conditioning phase), the test compounds (94 and 95, neflamapimod and vehicle) were injected. Also, before the acquisition trial, scopolamine or LPS was administered at selected time points. Then, each mouse was placed into the white compartment, and a 30 s habituation period began (guillotine gate is closed). After that, the guillotine gate was opened, and the mice were tested during the 180 s testing period. As soon as the mouse entered the black compartment of the PA device, the guillotine gate was closed and an electrical shock (intensity: 0.2 mA, duration: 2 s) was automatically applied through the grid floor. For each mouse, the latency between the opening of the guillotine gate and the mouse’s entering the black compartment was measured. On the next day, during the retention (drug-off) trial, the mice were placed again into the white compartment for a 30 s habituation period, and the latency to enter the black compartment was measured for each mouse.

[2] = tested on: JAK2(JH1domain-catalytic)
hAChE = hAChE (Homo sapiens, UniProt P22303)
Protocol: The inhibitory potencies of the compounds against the ChEs were determined using the method of Ellman. […] The final content of DMSO was always 1% [v/v]. […] The initial velocities in the presence (v i ) and absence (v 0) of the test compounds were calculated. The inhibitory potencies were expressed as the residual activities, according to RA = (v i – b)/(v 0 – b), where b is the blank value using phosphate buffer without ChEs. For IC50 determinations, at least seven different concentrations for each compound were used. The IC50 values were obtained by plotting the residual ChE activities against the applied inhibitor concentrations, with the experimental data fitted to a four-parameter logistic function (GraphPad Prism 10.0).

[3] = Pharmacokinetic study in mice
Protocol: In this study, male CD-1 mice weighing 27–34 g housed in conditions of constant temperature with a 12:12 h light-dark cycle with free access to food and water were used. Both tested and reference compounds were suspended in 1% Tween in water for injection (Polpharma, Poland) and administered intraperitoneally (i.p.). The mice were sacrificed by decapitation under isoflurane anesthesia at different time points following compound administration. Brains were harvested at the same time points. Blood was allowed to clot at room temperature for 20 min, and serum was separated by centrifugation at 8 000g (Eppendorf MiniSpin centrifuge, Germany) for 10 min. All samples were stored at −80 °C until analysis.
The analytical workflow employed a Sciex QTRAP 4500 triple quadrupole mass spectrometer interfaced with an Exion LC AC HPLC system (Danaher Corporation, USA). Chromatographic separation was achieved on an XBridge C18 column (3 × 50 mm, 5 μm; Waters, USA), utilizing a mobile phase composed of acetonitrile and water both containing 0.1% formic acid. The column temperature was maintained at 40 °C, and a gradient elution protocol (Table S10) was implemented to ensure optimal analyte resolution and retention times. Mass spectrometric detection was conducted in unit resolution mode, with ion transitions specified in Table S11. […] Valsartan served as the internal standard and was monitored at m/z 436 → 207 (collision energy = 42 eV). Positive electrospray ionization (ESI+) was employed to enhance detection sensitivity. Ion path parameters (Table S11) were optimized via direct infusion of analyte solutions (7 μL/min) using a syringe pump. The optimized source conditions included an ion spray voltage of 5500 V, a source temperature of 450 °C, curtain gas pressure at 20 psi, and medium collision gas pressure. […] No significant matrix effects or stability concerns were observed during routine sample analysis. Data acquisition and processing were carried out using Analyst software version 1.7.
Serial dilutions were performed to generate working solutions ranging from 0.01 to 20 μg/mL, corresponding to final calibration concentrations of 0.001–2 μg/mL. For calibration curve construction, 5 μL of each working solution was spiked into 45 μL of the relevant biological matrix (serum or brain homogenate) and vortexed for 10 s. Sample preparation involved protein precipitation, in a 1:3 (v/v) ratio, using acetonitrile containing 0.1% formic acid and the internal standard. The mixtures were agitated for 10 min using an IKA Vibrax VXR shaker (Germany), followed by centrifugation at 8000 × g for 5 min (Eppendorf miniSpin, Germany). The resulting supernatants were transferred to chromatographic vials for analysis.
Brain tissues were homogenized in distilled water at a 1:4 (w/v) ratio using an ULTRA-TURRAX T10 basic homogenizer (IKA, Germany). Aliquots of brain homogenate or serum (50 μL) were subjected to protein precipitation in a 1:3 (v/v) ratio with acetonitrile containing 0.1% formic acid and the internal standard. The mixtures were agitated for 10 min using an IKA Vibrax VXR shaker (Germany), followed by centrifugation at 8000 × g for 5 min (Eppendorf miniSpin, Germany). The resulting supernatants were directly transferred to chromatographic vials for analysis. In cases where analyte concentrations in serum exceeded 20 μg/mL, samples were diluted with blank matrix prior to the deproteinization step. The autosampler was maintained at 15 °C, and a 1 μL aliquot was injected onto the analytical column.
Pharmacokinetic parameters were estimated using the noncompartmental analysis (NCA). The maximum concentration (C max) and the time to reach maximum concentration (t max) in serum and brain were obtained directly from the concentration versus time data.

[4] = tested on: TLR4, COX-2, NLRP3, cPLA2 levels in brains of LPS-treated mice; assay: Western blot of brains of LPS-treated mice (ex vivo); assay type: in vivo; details: 94, 95: 10 mg/kg i.p.; rivastigmine 1 mg/kg i.p.; vs LPS-treated control
Protocol: After the completion of cognitive assays carried out in the LPS model, the mice were sacrificed, and their brains were collected and stored for further analysis. In the ex vivo part of the study, murine brains were homogenized using T-PER mammalian protein extraction reagent (Thermo Fisher Scientific, Waltham, MA, USA) with protease (Merck Millipore, Burlington, MA, USA) and phosphatase inhibitors (Cayman Chemical, Ann Arbor, MI, USA). The total protein concentrations were determined using the Bradford reaction. Forty μg of the total proteins were solubilized in Laemmli buffer with 2% 2-mercaptoethanol and were subject to 10% SDS-polyacrylamide gel electrophoresis. The anticyclooxygenase 2 (COX-2, diluted 1:1000), antitoll-like receptor 4 (TLR4, diluted 1:1000), anticytosolic phospholipase A2 (cPLA2, 1:1000), and anti-inflammasome (NLPR3, diluted 1:500) were used (Thermo Fisher Scientific, Waltham, MA, USA). The endogenous control was β-actin (1:1000) (Thermo Fisher Scientific, Waltham, MA, USA). The secondary antibody was antirabbit IgG (HRP) diluted 1:2000 (Thermo Fisher Scientific, Waltham, MA, USA). Proteins were detected using the Clarity Western ECL Luminol Substrate (Bio-Rad, Hercules, CA, USA). Chemi Doc Camera with Image Lab 6.1 software (Bio-Rad) was used to quantify the integrated optical density of the bands. The results were normalized to the data obtained for β-actin after stripping the PVDF membrane using Restore Western Blot Stripping Buffer (Thermo Fisher Scientific, Waltham, MA, USA) and expressed as relative to the control. This thorough process ensures the validity and reliability of the results.

LPS-treated mice = assay: Morris water maze task, LPS model of neuroinflammation; assay type: in vivo; details: 10 mg/kg i.p.
Protocol: The compounds were administered for 10 consecutive days, and on the last 6 days of their administration, LPS was also administered intraperitoneally 5 h before the test compounds. On these 6 days, the acquisition phase of the MWM task was performed. One day later, the retention, drug-off trial of the MWM task was carried out.
In the LPS model adult male C57BL/6J mice (Animal Breeding Farm of the Faculty of Pharmacy, Jagiellonian University Medical College) of similar weight and age were used. […] The mice had unlimited access to food and water prior to the experiment. Specified conditions for the maintenance of mice were ensured throughout the experiment, including tree bedding (Transwior, Poland) and cage enrichment (tunnels, nesting material, wooden igloos, etc.). For behavioral tests, the mice were selected randomly; each group consisted of 7–10 mice. […] After in vivo tests, the animals were immediately euthanized, and their tissues were collected and stored for further ex vivo testing.
LPS (Lipopolysaccharide from Escherichia coli O111:B4, Sigma-Aldrich, Poland) was used to induce neuroinflammation in mice. […] They were administered intraperitoneally (i.p.) 60 min before the acquisition trial of the PA, NOR, and MWM tasks. […] In the rotarod, locomotor activity, and MWM tests, only one dose effective in the scopolamine model of amnesia was evaluated.
The Morris water maze is a circular, plastic, and gray-painted pool (120 cm in diameter and 60 cm in height), filled with water (up to about 48 cm below the edge to prevent an animal from jumping out), maintained at 23 ± 1 °C. The pool was divided into four equal quadrants (compass locations: NE, NW, SE, SW) by a computerized video tracking system (SMART, ver. 3.0; Panlab, Spain). An escape platform (11 cm in diameter and 47 cm in height) at a fixed location (the center of the NW quadrant, i.e., the target quadrant) was made of transparent Plexiglas, being invisible to the swimming animal, and was immersed 1 cm under the surface of water. The maze was lighted with an intensity of 45 lx. […] The time taken to reach the hidden platform (escape latency) on days 1–6 was recorded for each mouse and analyzed. Each animal was released from a different starting point and was allowed to swim for 60 s. […] On the seventh day (a drug-off trial conducted 24 h after the last training trial), the platform was removed from the pool, and a probe trial was performed (without drug treatmentassessment of memory retention).

[5] = tested on: ABL1(E255K)-phosphorylated
[6] = male, CD-1, mouse, brain, ip, 10 mg/kg
[7] = male, CD-1, mouse, serum, ip, 10 mg/kg

Chain of hAChE (P22303 32-614): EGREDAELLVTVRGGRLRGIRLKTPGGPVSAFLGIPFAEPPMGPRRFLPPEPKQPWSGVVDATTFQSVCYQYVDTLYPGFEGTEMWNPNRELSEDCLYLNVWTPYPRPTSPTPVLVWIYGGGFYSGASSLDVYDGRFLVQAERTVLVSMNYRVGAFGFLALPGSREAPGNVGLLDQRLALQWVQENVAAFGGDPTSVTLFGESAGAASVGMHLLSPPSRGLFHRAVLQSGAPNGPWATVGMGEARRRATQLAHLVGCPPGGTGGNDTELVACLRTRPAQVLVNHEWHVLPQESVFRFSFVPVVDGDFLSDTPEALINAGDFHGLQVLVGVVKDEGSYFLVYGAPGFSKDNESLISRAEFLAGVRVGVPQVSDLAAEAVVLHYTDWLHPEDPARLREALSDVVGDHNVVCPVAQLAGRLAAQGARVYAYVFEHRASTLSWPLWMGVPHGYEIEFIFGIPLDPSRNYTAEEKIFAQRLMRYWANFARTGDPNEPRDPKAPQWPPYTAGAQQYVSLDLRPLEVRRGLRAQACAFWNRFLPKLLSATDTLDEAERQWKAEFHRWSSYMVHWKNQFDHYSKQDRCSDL

CN(C)CCNC(=O)c1cc2c(cnn2CC2CCCCC2)cc1Cc1ccc(F)cc1F [Compound 95, 1-(Cyclohexylmethyl)-5-(2,4-difluorobenzyl)-N-(2-(dimethylamino)ethyl)-1H-indazole-6-carboxamide]
RA @ 1000nM (DYRK1B): 95% | RA @ 10000nM (DYRK1B): 100% | efficacy in PA task ([1]; 5 mg/kg i.p., scopolamine model): not statistically significantly effective | step-through latency, retention trial (PA task) ([1]; 10 mg/kg i.p., vs scopolamine-treated control mice): statistically significant prolonged step-through latency | RA @ 1000nM (JNK1): 100% | RA @ 10000nM (JNK1): 27% | RA @ 1000nM (RIOK2): 88% | RA @ 10000nM (RIOK2): 81% | RA @ 1000nM (EGFR(L858R)): 100% | RA @ 10000nM (EGFR(L858R)): 100% | RA @ 1000nM (PIK3CA): 100% | RA @ 10000nM (PIK3CA): 100% | RA @ 1000nM (SNARK): 93% | RA @ 10000nM (SNARK): 92% | RA @ 1000nM (AXL): 84% | RA @ 10000nM (AXL): 83% | RA @ 1000nM (PLK4): 100% | RA @ 10000nM (PLK4): 100% | RA @ 1000nM [2]: 100% | RA @ 10000nM [2]: 100% | RA @ 1000nM (RET): 100% | RA @ 10000nM (RET): 100% | AChE inhibition (hAChE; at a concentration of 100 μM): did not inhibit AChE | hAChE RA at 100 μM (hAChE; residual activity at 100 μM, mean ± SD, one experiment in triplicate): 53.4% and 53 ± 1% and 53.4 ± 0.8% | RA @ 1000nM (p38δ): 100% | RA @ 10000nM (p38δ): 100% | RA @ 1000nM (JNK2): 44% | RA @ 10000nM (JNK2): 3.8% | RA @ 1000nM (IKKα): 92% | RA @ 10000nM (IKKα): 75% | RA @ 1000nM (BRAF(V600E)): 98% | RA @ 10000nM (BRAF(V600E)): 100% | RA @ 1000nM (PDGFRB): 100% | RA @ 10000nM (PDGFRB): 96% | AUC0‑∞ ([3]; brain, 10 mg/kg i.p., mice): 51082.15 ng·min/mL(g) | AUC0–t ([3]; brain, 10 mg/kg i.p., mice): 49811.92 ng·min/mL(g) | t0.5λz ([3]; brain, 10 mg/kg i.p., mice): 89.51 min | Cmax [3, 6]: 343 ng/g | MRT [3, 6]: 2.14 h | Tmax [3, 6]: 0.25 h | k el [3, 6]: 0.000128 s⁻¹ | Kp ([3]; male, CD-1, mouse, brain/serum, ip, 10 mg/kg): 0.83 | AUC [3, 7]: 1030 ng·h/mL | AUC(0-t) [3, 7]: 999 ng·h/mL | CL/F [3, 7]: 160 mL/min/kg | Cmax [3, 7]: 617 ng/mL | MRT [3, 7]: 1.97 h | Tmax [3, 7]: 0.25 h | Vd/F [3, 7]: 23.4 L/kg | k el [3, 7]: 0.000115 s⁻¹ | t0.5λz ([3]; serum, 10 mg/kg i.p., mice): 100.15 min | RA @ 1000nM (KIT): 100% | RA @ 10000nM (KIT): 100% | RA @ 1000nM (AURKA): 95% | RA @ 10000nM (AURKA): 93% | RA @ 1000nM (LKB1): 100% | RA @ 10000nM (LKB1): 86% | RA @ 1000nM (PCTK1): 87% | RA @ 10000nM (PCTK1): 79% | RA @ 1000nM (TGFBR1): 100% | RA @ 10000nM (TGFBR1): 100% | brain cPLA2 expression [4]: no difference | brain levels of TLR4, COX-2, and NLRP3 [4]: significantly lower levels | RA @ 1000nM (YANK3): 100% | RA @ 10000nM (YANK3): 100% | RA @ 1000nM (PIK3CG): 92% | RA @ 10000nM (PIK3CG): 97% | escape latency, acquisition phase (days 1–6) of MWM (LPS-treated mice; from day 2 (94) or day 3 (95) to day 6, vs LPS alone): statistically significant decrease in escape latency | latency to NW zone entry (MWM day 7, drug-off) (LPS-treated mice; vs LPS-treated control, p < 0.05): statistically significant difference | RA @ 1000nM (PIM1): 100% | RA @ 10000nM (PIM1): 94% | RA @ 1000nM (MET): 100% | RA @ 10000nM (MET): 100% | RA @ 1000nM [5]: 96% | RA @ 10000nM [5]: 93% | RA @ 1000nM (NLK): 100% | RA @ 10000nM (NLK): 100% | RA @ 1000nM (CSF1R): 100% | RA @ 10000nM (CSF1R): 79% | RA @ 1000nM (INSR): 84% | RA @ 10000nM (INSR): 81% | RA @ 1000nM (PIM3): 100% | RA @ 10000nM (PIM3): 100% | RA @ 1000nM (CSNK1G2): 100% | RA @ 10000nM (CSNK1G2): 98%
